According to patent US9707305B2, “Formulas for diagnosing and treating hormone-dependent cancers and cancers of the organs responsible for steroid hormone synthesis” (Commissariat à l'énergie atomique et aux énergies …, priority 2011, dated 2017):

Assay: Biodistribution of the nano-emulsion of Example 1.1 (radioactivity and fluorescence per organ)
Format: in vivo
Description: In the following examples, the radioactivity was counted with the TRiCarb Counter (Ref: Packard, Liquid Scintillation Analyzers; Models 2200CA).
Fluobeam 700 (Fluoptics) is the apparatus with which the whole of the organs from the biodistribution were analyzed in fluorescence as well as the one with which the biodistribution kinetics of the nano-emulsions were established in vivo. This imaging system allows viewing of the fluorescence in spectral bands from 700 to 850 nm for a 650 nm excitation. The apparatus consists of an electric case containing the laser of class 3B, its power supply and an optical head containing the CCD camera.
The nano-emulsions of Example 1 were injected into FVB female and male mice. As a comparison, a mixture of three tracers ([3H]CHE, [14C]CO and DiD) (not formulated as a nano-emulsion) was injected in order to observe the distribution of the tracers in the absence of droplets being used as a distribution carrier.
Tables 6 to 14 provide the biodistribution results of each tracer ([3H]CHE, [14C]CO and DiD) expressed as a percentage of the dose injected per gram of tissue (or [3H]CHE and [14C]CO) or as fluorescence intensity (for DiD) depending on the organ of the mouse, 15 minutes (Table 6), 2 hours (Table 7), 4 hours (Table 8), 6 hours (Table 9), 16 hours (Table 10), 24 hours (Table 11), 72 hours (Table 12), 120 hours (Table 13) and 168 hours (Table 14), after injection into an FVB female mouse of the nano-emulsion of Example 1.1. (nano-emulsion according to the invention comprising the three tracers ([3H]CHE, [14C]CO and DiD).

[1] = 15 min after injection of nano-emulsion of Example 1.1, FVB female mouse
[2] = 2 h after injection of nano-emulsion of Example 1.1, FVB female mouse
[3] = 4 h after injection of nano-emulsion of Example 1.1, FVB female mouse
[4] = 16 h (Table 9 head) after injection of nano-emulsion of Example 1.1, FVB female mouse
[5] = 24 h (Table 10 head) after injection of nano-emulsion of Example 1.1, FVB female mouse
[6] = 48 h (Table 11 head) after injection of nano-emulsion of Example 1.1, FVB female mouse
[7] = 72 h after injection of nano-emulsion of Example 1.1, FVB female mouse
[8] = 120 h after injection of nano-emulsion of Example 1.1, FVB female mouse
[9] = 168 h after injection of nano-emulsion of Example 1.1, FVB female mouse

CCCCCCCCCCCCCCCCO[C@H]1CC[C@@]2(C)C(=CC[C@H]3[C@@H]4CC[C@H]([C@H](C)CCCC(C)C)[C@@]4(C)CC[C@@H]32)C1 [[3H]CHE, cholesteryl hexadecylether]
biodistribution, Adrenal glands (MEAN) [1]: 10.60 % of injected dose per gram of | biodistribution, Brain (MEAN) [1]: 0.476 % of injected dose per gram of | biodistribution, Fat (MEAN) [1]: 1.10 % of injected dose per gram of | biodistribution, Heart (MEAN) [1]: 8.303 % of injected dose per gram of | biodistribution, Intestine (MEAN) [1]: 1.71 % of injected dose per gram of | biodistribution, Kidney (MEAN) [1]: 4.09 % of injected dose per gram of | biodistribution, Liver (MEAN) [1]: 8.26 % of injected dose per gram of | biodistribution, Lung (MEAN) [1]: 3.91 % of injected dose per gram of | biodistribution, Muscle (MEAN) [1]: 0.675 % of injected dose per gram of | biodistribution, Ovary (MEAN) [1]: 5.38 % of injected dose per gram of | biodistribution, Pancreas (MEAN) [1]: 1.233 % of injected dose per gram of | biodistribution, Salivary glands (MEAN) [1]: 1.157 % of injected dose per gram of | biodistribution, Spleen (MEAN) [1]: 3.63 % of injected dose per gram of | biodistribution, Uterus (MEAN) [1]: 0.90 % of injected dose per gram of | biodistribution, Adrenal glands (MEAN) [2]: 21.12 % of injected dose per gram of | biodistribution, Brain (MEAN) [2]: 0.26 % of injected dose per gram of | biodistribution, Fat (MEAN) [2]: 0.76 % of injected dose per gram of | biodistribution, Heart (MEAN) [2]: 4.64 % of injected dose per gram of | biodistribution, Intestine (MEAN) [2]: 2.44 % of injected dose per gram of | biodistribution, Kidneys (MEAN) [2]: 3.83 % of injected dose per gram of | biodistribution, Liver (MEAN) [2]: 31.09 % of injected dose per gram of | biodistribution, Lung (MEAN) [2]: 4.44 % of injected dose per gram of | biodistribution, Muscle (MEAN) [2]: 0.45 % of injected dose per gram of | biodistribution, Ovary (MEAN) [2]: 29.28 % of injected dose per gram of | biodistribution, Pancreas (MEAN) [2]: 1.43 % of injected dose per gram of | biodistribution, Salivary glands (MEAN) [2]: 1.42 % of injected dose per gram of | biodistribution, Spleen (MEAN) [2]: 5.10 % of injected dose per gram of | biodistribution, Uterus (MEAN) [2]: 2.23 % of injected dose per gram of | biodistribution, Adrenal glands (MEAN) [3]: 28.13 % of injected dose per gram of | biodistribution, Brain (MEAN) [3]: 0.19 % of injected dose per gram of | biodistribution, Fat (MEAN) [3]: 1.40 % of injected dose per gram of | biodistribution, Heart (MEAN) [3]: 4.94 % of injected dose per gram of | biodistribution, Intestine (MEAN) [3]: 2.46 % of injected dose per gram of | biodistribution, Kidney (MEAN) [3]: 2.51 % of injected dose per gram of | biodistribution, Liver (MEAN) [3]: 37.43 % of injected dose per gram of | biodistribution, Lungs (MEAN) [3]: 4.02 % of injected dose per gram of | biodistribution, Muscle (MEAN) [3]: 0.41 % of injected dose per gram of | biodistribution, Ovary (MEAN) [3]: 39.41 % of injected dose per gram of | biodistribution, Pancreas (MEAN) [3]: 1.01 % of injected dose per gram of | biodistribution, Salivary glands (MEAN) [3]: 1.09 % of injected dose per gram of | biodistribution, Spleen (MEAN) [3]: 5.00 % of injected dose per gram of | biodistribution, Uterus (MEAN) [3]: 1.69 % of injected dose per gram of | biodistribution, Adrenal glands (MEAN) [4]: 43.16 % of injected dose per gram of | biodistribution, Brain (MEAN) [4]: 0.13 % of injected dose per gram of | biodistribution, Fat (MEAN) [4]: 1.36 % of injected dose per gram of | biodistribution, Heart (MEAN) [4]: 3.49 % of injected dose per gram of | biodistribution, Intestine (MEAN) [4]: 4.87 % of injected dose per gram of | biodistribution, Kidney (MEAN) [4]: 2.06 % of injected dose per gram of | biodistribution, Liver (MEAN) [4]: 47.67 % of injected dose per gram of | biodistribution, Lungs (MEAN) [4]: 4.63 % of injected dose per gram of | biodistribution, Muscle (MEAN) [4]: 0.76 % of injected dose per gram of | biodistribution, Ovary (MEAN) [4]: 52.26 % of injected dose per gram of | biodistribution, Pancreas (MEAN) [4]: 1.17 % of injected dose per gram of | biodistribution, Salivary glands (MEAN) [4]: 1.27 % of injected dose per gram of | biodistribution, Spleen (MEAN) [4]: 7.48 % of injected dose per gram of | biodistribution, Uterus (MEAN) [4]: 3.91 % of injected dose per gram of | biodistribution, Adrenal glands (MEAN) [5]: 39.68 % of injected dose per gram of | biodistribution, Brain (MEAN) [5]: 0.09 % of injected dose per gram of | biodistribution, Fat (MEAN) [5]: 0.88 % of injected dose per gram of | biodistribution, Heart (MEAN) [5]: 3.53 % of injected dose per gram of | biodistribution, Intestine (MEAN) [5]: 2.78 % of injected dose per gram of | biodistribution, Kidney (MEAN) [5]: 1.50 % of injected dose per gram of | biodistribution, Liver (MEAN) [5]: 48.76 % of injected dose per gram of | biodistribution, Lung (MEAN) [5]: 3.21 % of injected dose per gram of | biodistribution, Muscle (MEAN) [5]: 0.46 % of injected dose per gram of | biodistribution, Ovary (MEAN) [5]: 38.06 % of injected dose per gram of | biodistribution, Pancreas (MEAN) [5]: 0.64 % of injected dose per gram of | biodistribution, Salivary glands (MEAN) [5]: 1.40 % of injected dose per gram of | biodistribution, Spleen (MEAN) [5]: 7.50 % of injected dose per gram of | biodistribution, Uterus (MEAN) [5]: 1.82 % of injected dose per gram of | biodistribution, Adrenal glands (MEAN) [6]: 42.26 % of injected dose per gram of | biodistribution, Brain (MEAN) [6]: 0.08 % of injected dose per gram of | biodistribution, Fat (MEAN) [6]: 1.05 % of injected dose per gram of | biodistribution, Heart (MEAN) [6]: 3.52 % of injected dose per gram of | biodistribution, Intestine (MEAN) [6]: 4.43 % of injected dose per gram of | biodistribution, Kidney (MEAN) [6]: 1.63 % of injected dose per gram of | biodistribution, Liver (MEAN) [6]: 58.43 % of injected dose per gram of | biodistribution, Lungs (MEAN) [6]: 3.91 % of injected dose per gram of | biodistribution, Muscle (MEAN) [6]: 0.36 % of injected dose per gram of | biodistribution, Ovary (MEAN) [6]: 36.42 % of injected dose per gram of | biodistribution, Pancreas (MEAN) [6]: 1.00 % of injected dose per gram of | biodistribution, Salivary glands (MEAN) [6]: 1.09 % of injected dose per gram of | biodistribution, Spleen (MEAN) [6]: 12.32 % of injected dose per gram of | biodistribution, Uterus (MEAN) [6]: 3.75 % of injected dose per gram of | biodistribution, Adrenal glands (MEAN) [7]: 36.92 % of injected dose per gram of | biodistribution, Brain (MEAN) [7]: 0.08 % of injected dose per gram of | biodistribution, Fat (MEAN) [7]: 0.85 % of injected dose per gram of | biodistribution, Heart (MEAN) [7]: 2.98 % of injected dose per gram of | biodistribution, Intestine (MEAN) [7]: 3.58 % of injected dose per gram of | biodistribution, Kidney (MEAN) [7]: 1.27 % of injected dose per gram of | biodistribution, Liver (MEAN) [7]: 39.73 % of injected dose per gram of | biodistribution, Lungs (MEAN) [7]: 2.95 % of injected dose per gram of | biodistribution, Muscle (MEAN) [7]: 0.22 % of injected dose per gram of | biodistribution, Ovary (MEAN) [7]: 25.11 % of injected dose per gram of | biodistribution, Pancreas (MEAN) [7]: 0.74 % of injected dose per gram of | biodistribution, Salivary glands (MEAN) [7]: 1.10 % of injected dose per gram of | biodistribution, Spleen (MEAN) [7]: 7.65 % of injected dose per gram of | biodistribution, Uterus (MEAN) [7]: 5.63 % of injected dose per gram of | biodistribution, Adrenal gland (MEAN) [8]: 41.92 % of injected dose per gram of | biodistribution, Brain (MEAN) [8]: 0.08 % of injected dose per gram of | biodistribution, Fat (MEAN) [8]: 0.68 % of injected dose per gram of | biodistribution, Heart (MEAN) [8]: 2.59 % of injected dose per gram of | biodistribution, Intestine (MEAN) [8]: 3.60 % of injected dose per gram of | biodistribution, Kidney (MEAN) [8]: 1.29 % of injected dose per gram of | biodistribution, Liver (MEAN) [8]: 39.13 % of injected dose per gram of | biodistribution, Lungs (MEAN) [8]: 3.30 % of injected dose per gram of | biodistribution, Muscle (MEAN) [8]: 0.27 % of injected dose per gram of | biodistribution, Ovary (MEAN) [8]: 16.92 % of injected dose per gram of | biodistribution, Pancreas (MEAN) [8]: 1.00 % of injected dose per gram of | biodistribution, Salivary glands (MEAN) [8]: 2.14 % of injected dose per gram of | biodistribution, Spleen (MEAN) [8]: 9.69 % of injected dose per gram of | biodistribution, Uterus (MEAN) [8]: 4.99 % of injected dose per gram of | biodistribution, Adrenal glands (MEAN) [9]: 29.30 % of injected dose per gram of | biodistribution, Brain (MEAN) [9]: 0.07 % of injected dose per gram of | biodistribution, Fat (MEAN) [9]: 0.99 % of injected dose per gram of | biodistribution, Heart (MEAN) [9]: 2.19 % of injected dose per gram of | biodistribution, Intestine (MEAN) [9]: 2.80 % of injected dose per gram of | biodistribution, Kidneys (MEAN) [9]: 1.44 % of injected dose per gram of | biodistribution, Liver (MEAN) [9]: 32.70 % of injected dose per gram of | biodistribution, Lungs (MEAN) [9]: 1.70 % of injected dose per gram of | biodistribution, Muscle (MEAN) [9]: 0.37 % of injected dose per gram of | biodistribution, Ovary (MEAN) [9]: 20.61 % of injected dose per gram of | biodistribution, Pancreas (MEAN) [9]: 0.79 % of injected dose per gram of | biodistribution, Salivary glands (MEAN) [9]: 2.01 % of injected dose per gram of | biodistribution, Spleen (MEAN) [9]: 10.71 % of injected dose per gram of | biodistribution, Uterus (MEAN) [9]: 4.86 % of injected dose per gram of
